Measurements: patent US6936585B2, “Corticotropin releasing factor 2 receptor agonists” (priority 2002, dated 2005)
Ends that are not written are not given here. Peptide text beside a SMILES is read from it.

Assays:
[1] = target: T1, CRF1R (Homo sapiens, UniProt P34998); test: CRF1R agonist activation (EC50 / Emax), called comparative CRF binding; type: cell-based; conditions: for Emax: read-out: CRF1R Emax; for EC50: read-out: CRF1R EC50
T1 sequence (P34998 24-415): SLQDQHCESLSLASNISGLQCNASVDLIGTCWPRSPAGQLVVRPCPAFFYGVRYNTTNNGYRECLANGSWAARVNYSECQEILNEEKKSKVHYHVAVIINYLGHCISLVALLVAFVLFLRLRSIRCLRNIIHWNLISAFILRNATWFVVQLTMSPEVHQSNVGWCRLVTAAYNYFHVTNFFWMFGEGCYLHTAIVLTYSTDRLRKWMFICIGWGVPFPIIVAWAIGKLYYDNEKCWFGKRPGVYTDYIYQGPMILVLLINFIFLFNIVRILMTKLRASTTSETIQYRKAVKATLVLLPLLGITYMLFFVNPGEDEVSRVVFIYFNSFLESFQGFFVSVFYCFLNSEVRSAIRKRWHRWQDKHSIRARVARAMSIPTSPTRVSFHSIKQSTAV
Summary of the method: (§1)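 Receptor-expressing cells are contacted with test peptide or the vehicle it is dissolved in. Lysates are then assayed for cAMP, or expression of a CRE-coupled reporter is quantitated. Engineered cells carrying receptor-G-protein fusions may replace full-length receptors.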

[2] = target: T2, CRF2R (Homo sapiens, UniProt Q13324); test: CRF2R agonist activation (EC50 / Emax), called comparative CRF binding; type: cell-based; conditions: for Emax: read-out: CRF2R Emax; for EC50: read-out: CRF2R EC50
T2 sequence (Q13324 1-411): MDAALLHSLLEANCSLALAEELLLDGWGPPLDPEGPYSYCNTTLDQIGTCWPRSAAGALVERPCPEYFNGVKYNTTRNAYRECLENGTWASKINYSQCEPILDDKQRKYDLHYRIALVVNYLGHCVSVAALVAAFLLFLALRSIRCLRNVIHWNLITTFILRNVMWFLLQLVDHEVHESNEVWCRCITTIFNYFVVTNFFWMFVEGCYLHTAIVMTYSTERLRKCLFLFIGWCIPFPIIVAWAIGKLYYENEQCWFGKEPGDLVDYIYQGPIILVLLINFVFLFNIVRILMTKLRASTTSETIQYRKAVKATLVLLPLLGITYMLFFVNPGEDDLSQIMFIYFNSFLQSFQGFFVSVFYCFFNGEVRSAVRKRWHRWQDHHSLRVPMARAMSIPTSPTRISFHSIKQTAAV
Summary of the method: as §1

Compound | Emax [1] [%] | Emax [2] [%] | EC50 [1] [nM] | EC50 [2] [nM]
CC[C@H](C)[C@H](NC(=O)[C@H](CCCNC(=N)N)NC(=O)[C@H](C)NC(=O)[C@H](CC(N)=O)NC(=O)[C@H](CCC(N)=O)NC(=O)[C@H](CCC(=O)O)NC(=O)[C@H](C)NC(=O)[C@H](CCCNC(=N)N)NC(=O)[C@H](CCC(=O)O)NC(=O)[C@H](CCCNC(=N)N)NC(=O)[C@H](CCC(N)=O)NC(=O)[C@H](CO)NC(=O)[C@H](CCC(N)=O)NC(=O)[C@@H](NC(=O)[C@H](CCCCN)NC(=O)[C@H](CCC(=O)O)NC(=O)[C@H](CC(C)C)NC(=O)[C@H](CCC(=O)O)NC(=O)[C@H](CC(C)C)NC(=O)[C@H](CC(C)C)NC(=O)[C@@H](NC(=O)[C@H](CCCNC(=N)N)NC(=O)[C@H](CC(C)C)NC(=O)[C@H](CC(C)C)NC(=O)[C@@H](NC(=O)[C@H](CC(C)C)NC(=O)[C@@H]1CCCN1C(=O)[C@H](CC(C)C)NC(=O)[C@H](CC(=O)O)NC(=O)[C@@H](NC(=O)[C@H](CO)NC(=O)[C@H](CC(C)C)NC(=O)[C@H](CO)NC(=O)[C@@H]1CCCN1)[C@@H](C)CC)[C@@H](C)CC)[C@@H](C)O)[C@@H](C)O)C(=O)N[C@@H](Cc1ccccc1)C(=O)N[C@@H](C)C(=O)N[C@@H](CCCNC(=N)N)C(=O)N[C@H](C(N)=O)C(C)C [compound 332] (H-PSLSIDLPLILLRTLLELEKTQSQRERAEQNARIFARV-NH2; N-terminus assumed) | 61.3 | 100 |  | 
CC[C@H](C)[C@H](NC(=O)[C@H](C)NC(=O)[C@H](CC(N)=O)NC(=O)[C@H](CCC(N)=O)NC(=O)[C@H](CCC(=O)O)NC(=O)[C@H](C)NC(=O)[C@H](CCCNC(=N)N)NC(=O)[C@H](CCC(=O)O)NC(=O)[C@H](CCCNC(=N)N)NC(=O)[C@H](CCC(N)=O)NC(=O)[C@H](CO)NC(=O)[C@H](CCC(N)=O)NC(=O)[C@@H](NC(=O)[C@H](CCCNC(=N)N)NC(=O)[C@H](C)NC(=O)[C@H](CC(C)C)NC(=O)[C@H](CCC(=O)O)NC(=O)[C@H](CC(C)C)NC(=O)[C@H](CC(C)C)NC(=O)[C@@H](NC(=O)[C@H](CCCNC(=N)N)NC(=O)[C@H](CC(C)C)NC(=O)[C@H](CC(C)C)NC(=O)[C@H](Cc1ccc(O)cc1)NC(=O)[C@@H](NC(=O)[C@@H]1CCCN1C(=O)[C@H](CC(C)C)NC(=O)[C@H](CC(=O)O)NC(=O)[C@@H](NC(=O)[C@H](CO)NC(=O)[C@H](CC(C)C)NC(=O)[C@H](CO)NC(=O)[C@@H]1CCCN1C(=O)[C@H](CC(N)=O)NC(=O)[C@@H](N)CC(=O)O)[C@@H](C)CC)[C@@H](C)O)[C@@H](C)O)[C@@H](C)O)C(=O)N[C@H](C(=O)N[C@@H](Cc1ccccc1)C(=O)N[C@@H](C)C(=O)N[C@@H](CO)C(=O)N[C@H](C(N)=O)C(C)C)[C@@H](C)CC [compound 173] (H-DNPSLSIDLPTYLLRTLLELARTQSQRERAEQNAIIFASV-NH2) | 6.05 | 65.2 |  | 
CC[C@H](C)[C@H](NC(=O)[C@H](C)NC(=O)[C@H](CC(N)=O)NC(=O)[C@H](CCC(N)=O)NC(=O)[C@H](CCC(=O)O)NC(=O)[C@H](C)NC(=O)[C@H](CCCNC(=N)N)NC(=O)[C@H](CCC(=O)O)NC(=O)[C@H](CCCNC(=N)N)NC(=O)[C@H](CCC(N)=O)NC(=O)[C@H](CO)NC(=O)[C@H](CCC(N)=O)NC(=O)[C@@H](NC(=O)[C@H](CCCNC(=N)N)NC(=O)[C@H](C)NC(=O)[C@H](CC(C)C)NC(=O)[C@H](CCC(=O)O)NC(=O)[C@H](CC(C)C)NC(=O)[C@H](CC(C)C)NC(=O)[C@@H](NC(=O)[C@H](CCCNC(=N)N)NC(=O)[C@H](CC(C)C)NC(=O)[C@H](CC(C)C)NC(=O)[C@H](CCC(N)=O)NC(=O)[C@H](Cc1ccccc1)NC(=O)[C@@H]1CCCN1C(=O)[C@H](CC(C)C)NC(=O)[C@H](CC(=O)O)NC(=O)[C@@H](NC(=O)[C@H](CO)NC(=O)[C@H](CC(C)C)NC(=O)[C@H](CO)NC(=O)[C@@H]1CCCN1C(=O)[C@H](CC(N)=O)NC(=O)[C@@H](N)CC(=O)O)[C@@H](C)CC)[C@@H](C)O)[C@@H](C)O)C(=O)N[C@H](C(=O)N[C@@H](Cc1ccccc1)C(=O)N[C@@H](C)C(=O)N[C@@H](CO)C(=O)N[C@H](C(N)=O)C(C)C)[C@@H](C)CC [compound 182] (H-DNPSLSIDLPFQLLRTLLELARTQSQRERAEQNAIIFASV-NH2; N-terminus assumed) | 89.7 | 91.4 | 409 | 7.21
CC[C@H](C)[C@H](NC(=O)[C@H](CCCNC(=N)N)NC(=O)[C@H](C)NC(=O)[C@H](CC(N)=O)NC(=O)[C@H](CCC(N)=O)NC(=O)[C@H](CCC(=O)O)NC(=O)[C@H](C)NC(=O)[C@H](CCCNC(=N)N)NC(=O)[C@H](CCC(=O)O)NC(=O)[C@H](CCCNC(=N)N)NC(=O)[C@H](CCC(N)=O)NC(=O)[C@H](CO)NC(=O)[C@H](CCC(N)=O)NC(=O)[C@@H](NC(=O)[C@H](CCCCN)NC(=O)[C@H](CCC(=O)O)NC(=O)[C@H](CC(C)C)NC(=O)[C@H](CCC(=O)O)NC(=O)[C@H](CC(C)C)NC(=O)[C@H](CC(C)C)NC(=O)[C@@H](NC(=O)[C@H](CCCNC(=N)N)NC(=O)[C@H](CC(C)C)NC(=O)[C@H](CC(C)C)NC(=O)[C@H](CC(C)C)NC(=O)[C@H](CC(C)C)NC(=O)[C@@H]1CCCN1C(=O)[C@H](CC(C)C)NC(=O)[C@H](CC(=O)O)NC(=O)[C@@H](NC(=O)[C@H](CO)NC(=O)[C@H](CC(C)C)NC(=O)[C@H](CO)NC(=O)[C@@H]1CCCN1)[C@@H](C)CC)[C@@H](C)O)[C@@H](C)O)C(=O)N[C@@H](Cc1ccccc1)C(=O)N[C@@H](C)C(=O)N[C@@H](CCCNC(=N)N)C(=O)N[C@H](C(N)=O)C(C)C [compound 333] (H-PSLSIDLPLLLLRTLLELEKTQSQRERAEQNARIFARV-NH2; N-terminus assumed) | 43.8 | 96.9 | ≥ 1000 | 9.85
SQEPPISLDLTIHLLREVLEMTKADQLAQQAHSNRKLLDIA-NH2 [compound 87] | 5.3 | 14.7 |  | 
NDDPPISIDLPLFLLRNMIEMARIENEREQAGLNAKYLAEV-NH2 [compound 257] | 83.5 | 72.6 |  | 
SQEPPISLDLPFGLLREVLEMTKADQLAQQAHSNRKLLDIA-NH2 [compound 103] | 5.75 | 4.85 |  | 
NDDPPISIDLPFFLLRNMIEMARIENEREQAGLNAKYLAEV-NH2 [compound 264] | 100 | 66.3 |  | 
CC[C@H](C)[C@H](N)C(=O)N[C@H](C(=O)N[C@@H](CC(C)C)C(=O)N[C@@H](CO)C(=O)N[C@@H](CC(C)C)C(=O)N[C@@H](CC(=O)O)C(=O)N[C@H](C(=O)N1CCC[C@H]1C(=O)N[C@H](C(=O)NCC(=O)N[C@@H](CC(C)C)C(=O)N[C@@H](CC(C)C)C(=O)N[C@@H](CCC(N)=O)C(=O)N[C@H](C(=O)N[C@@H](CC(C)C)C(=O)N[C@@H](CC(C)C)C(=O)N[C@@H](CCC(=O)O)C(=O)N[C@@H](CC(C)C)C(=O)N[C@@H](C)C(=O)N[C@@H](CCCNC(=N)N)C(=O)N[C@H](C(=O)N[C@@H](CCC(N)=O)C(=O)N[C@@H](CO)C(=O)N[C@@H](CCC(N)=O)C(=O)N[C@@H](CCCNC(=N)N)C(=O)N[C@@H](CCC(=O)O)C(=O)N[C@@H](CCCNC(=N)N)C(=O)N[C@@H](C)C(=O)N[C@@H](CCC(=O)O)C(=O)N[C@@H](CCC(N)=O)C(=O)N[C@@H](CC(N)=O)C(=O)N[C@@H](CCCNC(=N)N)C(=O)N[C@H](C(=O)N[C@H](C(=O)N[C@@H](Cc1ccccc1)C(=O)N[C@@H](CC(=O)O)C(=O)N[C@@H](CO)C(=O)N[C@H](C(N)=O)C(C)C)[C@@H](C)CC)[C@@H](C)CC)[C@@H](C)O)[C@@H](C)O)[C@@H](C)CC)C(C)C)C(C)C [compound 160] (H-IVLSLDVPIGLLQTLLELARTQSQRERAEQNRIIFDSV-NH2; N-terminus assumed) | 10 | 87 |  | 
CC[C@H](C)[C@H](NC(=O)[C@H](C)NC(=O)[C@H](CC(N)=O)NC(=O)[C@H](CCC(N)=O)NC(=O)[C@H](CCC(=O)O)NC(=O)[C@H](C)NC(=O)[C@H](CCCNC(=N)N)NC(=O)[C@H](CCC(=O)O)NC(=O)[C@H](CCCNC(=N)N)NC(=O)[C@H](CCC(N)=O)NC(=O)[C@H](CO)NC(=O)[C@H](CCC(N)=O)NC(=O)[C@@H](NC(=O)[C@H](CCCCN)NC(=O)[C@H](CCC(=O)O)NC(=O)[C@H](CC(C)C)NC(=O)[C@H](CCC(=O)O)NC(=O)[C@H](CC(C)C)NC(=O)[C@H](CC(C)C)NC(=O)[C@@H](NC(=O)[C@H](CCCNC(=N)N)NC(=O)[C@H](CC(C)C)NC(=O)[C@H](CC(C)C)NC(=O)[C@H](Cc1ccccc1)NC(=O)[C@H](CC(C)C)NC(=O)[C@@H]1CCCN1C(=O)[C@H](CC(C)C)NC(=O)[C@H](CC(=O)O)NC(=O)[C@@H](NC(=O)[C@H](CO)NC(=O)[C@H](CC(C)C)NC(=O)[C@H](CO)NC(=O)[C@@H]1CCCN1C(=O)[C@H](CC(N)=O)NC(=O)[C@@H](N)CC(=O)O)[C@@H](C)CC)[C@@H](C)O)[C@@H](C)O)C(=O)N[C@H](C(=O)N[C@@H](Cc1ccccc1)C(=O)N[C@@H](C)C(=O)N[C@@H](CO)C(=O)N[C@H](C(N)=O)C(C)C)[C@@H](C)CC [compound 343] (H-DNPSLSIDLPLFLLRTLLELEKTQSQRERAEQNAIIFASV-NH2; N-terminus assumed) | 62.5 | 96.5 |  | 
